Measured values published in publication PMC7767399, “Targeted Isolation of Anti-Trypanosomal Naphthofuran-Quinone Compounds from the Mangrove Plant Avicennia lanata” (Marine Drugs, 2020).
In brackets after ≈: the same amount, converted by molar mass. Like-named read-outs stand apart in the source and are kept apart here.

Key:
[1] = system: epimastigotes of T. cruzi; design: method as in PMID 8788584; conditions: read-out: 50% culture growth inhibition (GI50); cited from earlier work
[2] = system: epimastigotes of T. cruzi; design: method as in doi:10.1016/0960-894X(95)00248-R; conditions: cited from earlier work
T. b. brucei = test: Anti-trypanosomal Alamar blue 96-well microplate assay; assay type: cell-based, Trypanosoma brucei brucei S427 (blood stream form); conditions: for MIC: read-out: MIC (minimum inhibitory concentration necessary to achieve 90% growth inhibition); for anti-trypanosomal activity (in words): screening of extract/fractions at 20, 10 and 5 μg/mL, pure compounds by MIC
Procedure: Each fraction was screened at different concentrations of 20, 10 and 5 μg/mL. The assay was performed in duplicate for each sample.
MIC assays were performed for samples having greater than 90% inhibition at a concentration of 20 μM in the initial screening campaign. The MIC values of the isolated compounds against T. b. brucei were determined by averaging the results of two independent assays. The concentrations were averaged and converted to μM.
The activity of the pure compounds was tested in vitro against the blood stream form of Trypanosomal brucei brucei (T. b. brucei) S427. The activity of the samples was determined using the well-established Alamar blue™ 96-well microplate assay, in which the screening procedure was modified from the microplate Alamar blue assay, to determine the drug sensitivity of African trypanosomes. The samples were initially screened at one concentration (20 μg/mL crude extracts or fractions, 20 μM for pure compounds) to determine their in vitro activity. Stock solutions of tested samples in DMSO (Acros Organics BVBA, Janssen Pharmaceutical, Geel, Belgium) were prepared at concentrations of 10 mg/mL (extracts) or 10 mM for pure compounds. The concentration of DMSO should not exceed 0.5% of the final test solution.

PNT2A cells = test: Cytotoxicity Alamar Blue assay on normal prostatic epithelial cells; assay type: cell-based, human; conditions: 100 μg/mL, % of DMSO control values, n = 3
Procedure: Meanwhile, the initial screening for cytotoxicity activity of the isolated compounds was performed on human normal prostatic epithelial cells (PNT2A) at 100 μg/mL. […] In the initial screening, if the cell viability is less than 60%, a concentration response test at 0.3 to 300 μg/mL was carried on.
The pure compounds from mangrove plant, A. lanata were tested for cytotoxicity in vitro against human normal prostatic epithelial cell line (PNT2A) derived from ECACC (Sigma-Aldrich, Dorset, UK).
The cytotoxicity activity of the pure compounds was determined using the well-established Alamar Blue™ redox-based 96-well microplate assay, in which the screening procedure was modified from. PNT2A cells were seeded into 96-well microplate assay at density of 0.5 × 10^4 cells/well in 100 μL of Dulbecco’s modified Eagle’s medium (DMEM; Invitrogen, Paisley, UK) and incubated at 37 °C, 5% CO2 with a humidified atmosphere for 24 h. […] The microplate plate was incubated at 37 °C, 5% CO2 with a humidified atmosphere for 24 h, then 10 μL of Alamar blue was added. The microplate was further incubated for another 20 h, then the fluorescence was measured using a Wallac Victor 2 microplate reader (Perkin Elmer, Cambridge, UK) (excitation: 530 nm, emission 590 nm). The results were calculated as % of the DMSO control values.

[3] = system: Giardia lamblia trophozoites; design: method as in doi:10.29356/jmcs.v56i2.305; conditions: read-out: IC50 (giardicidal activity); cited from earlier work
T. b. rhodesiense = system: T. b. rhodesiense; design: method as in PMID 21438586; conditions: T. b. rhodesiense in vitro bloodstream trypomastigotes; cited from earlier work
T. cruzi = system: T. cruzi; design: method as in earlier work; conditions: cited from earlier work
[4] = system: bloodstream strain of T. b. brucei; design: method as in PMID 17637068; conditions: cited from earlier work
[5] = different strains of T. cruzi epimastigotes, at 13–17 μM of the tested compounds
[6] = T. cruzi epimastigotes, compounds with two methoxy groups on the benzene ring
[7] = T. b. brucei, two independent assays
[8] = Trypanosoma brucei, T. b. brucei, two independent assays

For `CC1OC2=C(C(=O)c3ccccc3C2=O)C1(C)C` (single isomer, unassigned; (-)) [(−)-2,3,3-trimethyl-2-3-dihydronaphtho [2,3-b]furan-4,9-quinone], which GI50 [1] is on record?
Its GI50 is 2.1 to 5.2 µM.

Which “growth inhibition (GI)” value [2, 5] does the source give for `COc1ccc2c(c1)C(=O)c1cc(C(C)O)oc1C2=O` (stereo not drawn) [2-(1-hydroxyethyl)-6-methoxynaphtho[2,3-b]furan-4,9-quinone] here?
Its value is 100%.

With `COc1ccc2c(c1OC)C(=O)c1oc(C(C)O)cc1C2=O` (stereo not drawn) [2-(1-hydroxyethyl)-7,8-dimethoxynaphtho[2,3-b]furan-4,9-quinone] as the compound, how does the “growth inhibition (GI)” value [2, 6] read?
Its value is 22%.

Which “growth inhibition (GI)” value [2, 5] does the source give for `COc1ccc2c(c1)C(=O)c1cc(C(C)=O)oc1C2=O` [2-acetyl-6-methoxynaphtho[2,3-b]furan4,9-quinone] here?
The value was 100%.

For `COc1ccc2c(c1OC)C(=O)c1oc(C(C)=O)cc1C2=O` [2-acetyl-7,8-dimethoxynaphtho[2,3-b] furan-4,9-quinone], which “growth inhibition (GI)” value [2, 6] is on record?
Its value is 45%.

For `COc1ccc2c(c1OC)C(=O)c1ccoc1C2=O` [5,6-dimethoxynaphtho [2,3-b]furan-4,9-quinone], which “growth inhibition (GI)” value [2, 6] is on record?
The value was 45%.

Which “growth inhibition (GI)” value [2, 6] does the source give for `COc1ccc2c(c1OC)C(=O)c1occc1C2=O` [7,8-dimethoxynaphtho[2,3-b]furan-4,9-quinone] here?
Its value is 25%.

For `CC(C)(O)C1Cc2c(c(O)c3ccccc3c2O)O1` (stereo not drawn) [Compound 1, 2-(2-hydroxypropan-2-yl)-2,3-dihydronaphtho-[2,3-b] furan-4,9-diol], which MIC (T. b. brucei; [7]) is on record?
Its MIC is 12.50 µM (≈ 3.25 µg/mL).

What about the MIC (T. b. brucei; [8]) of the same compound?
Its MIC is 12.5 µM (≈ 3.25 µg/mL).

And the “Cell viability, % of DMSO control” value (PNT2A cells)?
The value was 86.1%.

With `CC(C)=CCC12OC(C(C)(C)O)CC1=C(O)c1ccccc1C2=O` (stereo not drawn) [Compound 2, glycosemiquinone] as the compound, how does the MIC (T. b. brucei; [7]) read?
The MIC was 12.50 µM (≈ 4.11 µg/mL).

And the MIC (T. b. brucei; [8])?
Its MIC is 12.5 µM (≈ 4.11 µg/mL).

And the “Cell viability, % of DMSO control” value (PNT2A cells)?
The value was 86.1%.

For `COc1c2c(c(OC)c3ccccc13)OC(C(C)(C)O)C2` (stereo not drawn) [Compound 3, avicenol C], which MIC (T. b. brucei; [8]) is on record?
The MIC was 6.25 µM (≈ 1.8 µg/mL).

And the “Cell viability, % of DMSO control” value (PNT2A cells)?
The value was 78.3%.

What does the source list for `CC(C)(O)c1cc2c(o1)C(=O)c1ccccc1C2=O` [Compound 4, avicequinone C]?
MIC (T. b. brucei; [8]): 3.12 µM (≈ 0.8 µg/mL); Cell viability, % of DMSO control (PNT2A cells): 68.6%

Which MIC (T. b. brucei; [7]) does the source give for `CC(C)=CCC12OC(C(C)(C)O)CC1C(=O)c1ccccc1C2=O` (stereo not drawn) [Compound 5, glycoquinone] here?
Its MIC is 12.50 µM (≈ 4.11 µg/mL).

What about the MIC (T. b. brucei; [8]) of the same compound?
Its MIC is 12.5 µM (≈ 4.11 µg/mL).

And the “Cell viability, % of DMSO control” value (PNT2A cells)?
The value was 80.3%.

For `CC1(C)CC[C@]2(C)CC=C3[C@]4(C)CC[C@H]5C(C)(C)C(=O)CC[C@]5(C)[C@H]4CC[C@@]3(C)[C@@H]2C1` [Compound 6, taraxerone], which “anti-trypanosomal activity (in words)” value (T. b. brucei; T. b. brucei) is on record?
Its value is “inactive”.

What about the MIC (T. b. brucei; [8]) of the same compound?
The MIC was 154 µM (≈ 65.5 µg/mL).

And the IC50 [3]?
The IC50 was 26.7 µM.

And the “Cell viability, % of DMSO control” value (PNT2A cells)?
The value was 88.8%.

What does the source list for `CC1(C)CC[C@]2(C)CC=C3[C@]4(C)CC[C@H]5C(C)(C)[C@@H](O)CC[C@]5(C)[C@H]4CC[C@@]3(C)[C@@H]2C1` [Compound 7, taraxerol]?
anti-trypanosomal activity (in words) (T. b. brucei; T. b. brucei): inactive; MIC (T. b. brucei; [8]): 145 µM (≈ 62 µg/mL); IC50 (T. b. rhodesiense): < 10 µM; IC50 [3]: 37.8 µM; Cell viability, % of DMSO control (PNT2A cells): 92.8%

For `CC[C@H](CC[C@@H](C)[C@H]1CC[C@H]2[C@@H]3CC=C4C[C@@H](O)CC[C@]4(C)[C@H]3CC[C@]12C)C(C)C` [Compound 8, β-sitosterol], which “anti-trypanosomal activity (in words)” value (T. b. brucei; T. b. brucei) is on record?
Its value is “inactive”.

What about the MIC (T. b. brucei; Trypanosoma brucei) of the same compound?
The MIC was 142 µM (≈ 59 µg/mL).

And the “Cell viability, % of DMSO control” value (PNT2A cells)?
The value was 96.2%.

Which “anti-trypanosomal activity (in words)” value (T. b. brucei; T. b. brucei) does the source give for `CC[C@H](/C=C/[C@@H](C)[C@H]1CC[C@H]2[C@@H]3CC=C4C[C@@H](O)CC[C@]4(C)[C@H]3CC[C@]12C)C(C)C` [Compound 9, stigmasterol] here?
Its value is “very low activity”.

And the MIC (T. b. brucei; Trypanosoma brucei)?
Its MIC is 126 µM (≈ 52.2 µg/mL).

And the “Cell viability, % of DMSO control” value (PNT2A cells)?
Its value is 98.7%.

Which “trypanocidal activity (in words)” value (T. cruzi) does the source give for `Cc1cccc2c1C(=O)c1c(CO)coc1C2=O` [maturone] here?
Its value is “potent trypanocidal activity”.

Which MIC (T. b. brucei; Trypanosoma brucei) does the source give for `Cc1ccc(C(=O)Nc2ccc(S(=O)(=O)O)c3cc(S(=O)(=O)O)cc(S(=O)(=O)O)c23)cc1NC(=O)c1cccc(NC(=O)Nc2cccc(C(=O)Nc3cc(C(=O)Nc4ccc(S(=O)(=O)O)c5cc(S(=O)(=O)O)cc(S(=O)(=O)O)c45)ccc3C)c2)c1` [suramin, reference compound] here?
The MIC was 0.11 µM (≈ 0.143 µg/mL).

With `CC(C)(C)CC(C)(C)c1ccc(OCCO)cc1` [triton X, reference compound] as the compound, how does the “Cell viability, % of DMSO control” value (PNT2A cells) read?
Its value is 0.082%.

With `CC1(C)CC[C@]2(C)CC[C@]3(C)C(=CC[C@@H]4[C@@]5(C)CC[C@H](O)C(C)(C)[C@@H]5CC[C@]43C)[C@@H]2C1` [β-amyrin] as the compound, how does the IC50 [4] read?
Its IC50 is 127 µM.
